Measurements published in patent publication US20220256902A1, “NOVEL STEVIOL GLYCOSIDE, METHOD FOR PRODUCING SAME, AND SWEETENER COMPOSITION CONTAINING SAME” (SUNTORY HOLDINGS LIMITED, priority 2019, published 2022).

Experiments:
[1] = Evaluation of sweetness level: choosing the sugar-added sample of equivalent sweetness intensity; type: in vivo
Procedure: In order to evaluate the sweetness levels of Novel steviol glycosides A and B, samples were prepared by adding sugar to pure water to give Brix of 3.0 to 5.0 in 0.5 increments. Compounds 15 and 17 obtained by the chemical syntheses were used as Novel steviol glycosides A and B, respectively, where 48 mg of each sample was dissolved in 400 mL of pure water to be tested. In addition, samples were also prepared for comparison by dissolving 48 mg of each of Reb.A, Reb.D and Reb.M in 400 mL of pure water.

[2] = Sensory evaluation of taste quality of beverage samples (sweetness on-set, lingering sweet aftertaste, bitterness, lingering bitter aftertaste); type: in vivo
Source text: In order to evaluate the taste quality of various steviol glycosides, Reb.A, Reb.D, Reb.M, sugar and Novel steviol glycoside A (Compound 15) were each added to pure water to prepare beverage samples. All of the beverage samples were adjusted to have final sweetness level (Brix) of 5 in terms of sugar (sucrose), and thus the sweetness levels of Reb.A, Reb.D, Reb.M and Novel steviol glycoside A (Compound 15) were 312, 317, 341 and 354, respectively.
(§1) The resulting beverage samples were subjected to sensory evaluation for rating the attributes, which were sweetness on-set, lingering sweet aftertaste, bitterness and lingering bitter aftertaste. Panelists who had been trained about sensory attributes of sweeteners (7 members) evaluated based on the following evaluation criteria. For each evaluation item, the steviol glycosides were scored in 0.5 increments provided that the score of sugar was 3. […]
as §1

[3] = evaluation with Novel steviol glycoside A (Compound 15), restated averages of Table 2
[4] = evaluation with Novel steviol glycoside B (Compound 17), restated averages of Table 3

Row | SMILES | sweetness levels taken for adjusting the beverage samples to Brix 5 in terms of sugar [1, 3] | sweetness levels taken for adjusting the beverage samples to Brix 5 in terms of sugar [1, 4] | sweetness level, times higher in average than that of sugar ([1]; average of panelists, 48 mg in 400 mL pure water) | sweetness (sensory evaluation, in words) ([2]; beverage samples in pure water, Brix 5 in terms of sugar, vs Reb.A, Reb.D, Reb.M, FIG. 14) | lingering sweet and bitter aftertastes ([2]; general statement in the description)
1 | C=C1C[C@@]23CC[C@H]4[C@@](C)(CCC[C@@]4(C)C(=O)O[C@@H]4O[C@H](CO)[C@@H](O)[C@H](O)[C@H]4O[C@@H]4O[C@H](CO)[C@@H](O)[C@H](O)[C@H]4O)[C@@H]2CC[C@]1(O[C@@H]1O[C@H](CO)[C@@H](O)[C@H](O[C@@H]2O[C@H](CO)[C@@H](O)[C@H](O)[C@H]2O)[C@H]1O[C@@H]1O[C@H](CO)[C@@H](O)[C@H](O)[C@H]1O)C3 [Reb D, rebaudioside D] | 317 | 310 | – | – | –
2 | C=C1C[C@@]23CC[C@H]4[C@@](C)(CCC[C@@]4(C)C(=O)O[C@@H]4O[C@H](CO)[C@@H](O)[C@H](O)[C@H]4O)[C@@H]2CC[C@]1(O[C@@H]1O[C@H](CO)[C@@H](O)[C@H](O[C@@H]2O[C@H](CO)[C@@H](O)[C@H](O)[C@H]2O)[C@H]1O[C@@H]1O[C@H](CO)[C@@H](O)[C@H](O)[C@H]1O)C3 [Reb A, rebaudioside A] | 312 | 288 | – | – | –
3 | C=C1CC23CCC4C(C)(C(=O)OC5OC(CO)C(O)C(O)C5OC5OCC(O)C(O)C5O)CCCC4(C)C2CCC1(OC1OC(CO)C(O)C(OC2OC(CO)C(O)C(O)C2O)C1OC1OC(CO)C(O)C(O)C1O)C3 (stereo not shown) [Novel steviol glycoside A] | 354 | – | about 354 times | less sweetness | less lingering sweet and bitter aftertastes
4 | C=C1C[C@@]23CC[C@H]4[C@@](C)(CCC[C@@]4(C)C(=O)O[C@@H]4O[C@H](CO)[C@@H](O)[C@H](O[C@@H]5O[C@H](CO)[C@@H](O)[C@H](O)[C@H]5O)[C@H]4O[C@@H]4O[C@H](CO)[C@@H](O)[C@H](O)[C@H]4O)[C@@H]2CC[C@]1(O[C@@H]1O[C@H](CO)[C@@H](O)[C@H](O[C@@H]2O[C@H](CO)[C@@H](O)[C@H](O)[C@H]2O)[C@H]1O[C@@H]1O[C@H](CO)[C@@H](O)[C@H](O)[C@H]1O)C3 [Reb M, rebaudioside M] | 341 | 324 | – | – | –
